In patent US4088778A, “Method for the treatment of hypertension” (priority 1975, dated 1978):

How the values were obtained:
[1] = Teratogenetic property test; format: in vivo, pregnant mice or pregnant rats; conditions: orally, 100 to 1200 mg/Kg
Excerpt: (C) Teratogenetic Property Test:

[2] = Clinical Test I, double blind: subjective symptoms; format: in vivo, human patients; conditions: for Stiffness in Shoulders: Improvement ratio: P group 45.2
Protocol: 94 patients of hypertension or arteriosclerosis having subjective symptoms were tested, and some of them suffered from complications such as ischemia heart disease, hypertensive heart disease and encephalomalacia.
As the active drug, there were employed hard capsules, each containing 100 mg of TN.
Two capsules were orally administered at one time, and the administration was conducted three times a day after eating. The period of the administration was principally 4 weeks or 6 weeks. During this period, the administration was performed continuously. Combined administration of drugs having the same function as that of TN (vitamin E drugs, nicotinic acid, its derivatives and peripheral vasolidators) was prohibited. Drugs which had been continuously administered since before the start of the administration of TN were similarly administered according to the disease case and symptom, and change of the prescription during the test was avoided.
In the above Table, the "Improved" means that the symptom was improved by at least one grade as compared with the symptom before the administration,and each number denotes the total number of the patients in whom the symptom was thus improved.
*The patients were divided into two groups, one in which the symptom was
improved by at least 2 grades (the sum of the patients in which the
symptoms were improved by 2, 3 and 4 grades) and the other in which the
symptom was improved by one grade, unchanged or worsened. The assay was
conducted on these two groups. (In other cases, the patients were divided
into two groups, one in which the symptom was improved by one grade and
the other in which the symptom was unchanged or worsened, and the assay
was made on these two groups.)
according to Fischer direct probability calculation method.

[3] = number of patients, total 3 (Table 9)
[4] = number of patients, total 7 (Table 9)
[5] = number of patients, total 8 (Table 9)
[6] = number of patients, total 9 (Table 9)
[7] = number of patients, total 9 (Table 10)
[8] = number of patients, total 11 (Table 9)
[9] = number of patients, total 13 (Table 9)
[10] = number of patients, total 14 (Table 9)
[11] = number of patients, total 15 (Table 9)
[12] = number of patients, total 16 (Table 9)
[13] = number of patients, total 16 (Table 10)
[14] = number of patients, total 17 (Table 9)
[15] = number of patients, total 18 (Table 9)
[16] = number of patients, total 18 (Table 10)
[17] = number of patients, total 23 (Table 9)
[18] = number of patients, total 23 (Table 10)
[19] = number of patients, total 25 (Table 9)
[20] = number of patients, total 25 (Table 10)
[21] = number of patients, total 26 (Table 9)
[22] = number of patients, total 26 (Table 10)
[23] = number of patients, total 28 (Table 9)
[24] = number of patients, total 28 (Table 10)
[25] = number of patients, total 30 (Table 9)
[26] = number of patients, total 51 (Table 10)

Cc1c(C)c2c(c(C)c1OC(=O)c1cccnc1)CCC(C)(CCCC(C)CCCC(C)CCCC(C)C)O2 (racemic) [TN, dl-α-tocopheryl nicotinate]
influences on mother animals, embryos and newborn babies [1]: no influences were observed | teratogenetic property [1]: no teratogenetic property | Forgetfulness: Improvement Ratio ([2]; Table 9, P group 21.7): 38.9% | Virtigo: Improvement Ratio ([2]; Table 9, P group 37.5): 66.7% | Pains on Waist and Back: Improvement Ratio ([2]; Table 9, P group 40.0): 64.7% | Syncope: Improvement Ratio ([2]; Table 9, P group 40.0): 75.0% | Chill on Limbs: Improvement Ratio ([2]; Table 9, P group 41.2): 35.7% | Stiffness in Nape: Improvement ratio ([2]; Table 9, P group 43.8): 68.0% | Stiffness in Shoulders: Improvement ratio ([2]; Table 9): 65.4% | Insomnia: Improvement ratio ([2]; Table 9, P group 47.4): 83.3% | Dizzy Feeling: Improvement ratio ([2]; Table 9, P group 50.0): 81.3% | Irritation: Improvement Ratio ([2]; Table 9, P group 50.0): 66.7% | Rush of Blood: Improvement Ratio ([2]; Table 9, P group 50.0): 69.2% | Tinnitus: Improvement Ratio ([2]; Table 9, P group 52.6): 50.0% | Palsy in Limbs: Improvement ratio ([2]; Table 9, P group 53.8): 82.6% | Short Breath: Improvement Ratio ([2]; Table 9, P group 53.8): 42.9% | Heaviness in Head: Improvement Ratio ([2]; Table 9, P group 62.5): 82.1% | Oppression on Breast: Improvement Ratio ([2]; Table 9, P group 63.6): 62.5% | Warmness: Improvement Ratio ([2]; Table 9, P group 66.7): 77.8% | Languor: Improvement Ratio ([2]; Table 9, P group 70.6): 60.0% | Palpitation: Improvement Ratio ([2]; Table 9, P group 76.9): 72.7% | Depression: Improvement Ratio ([2]; Table 9, P group 77.8): 42.9% | Headache: Improvement ratio ([2]; Table 9, P group 78.6): 83.3% | Pain on Breast: Improvement Ratio ([2]; Table 9, P group 100.0): 71.4% | Vertigo: Improvement ratio ([2]; Table 10, P group 37.5): 66.7% | Stiffness in Nape: Improvement ratio ([2]; Table 10, P group 43.8, chi0^2 = 3.3270, P < 0.10): 68.0% | Stiffness in Shoulders and Nape: Improvement ratio ([2]; Table 10, P group 44.4, chi0^2 = 5.6104, P < 0.025): 66.7% | Stiffness in Shoulders: Improvement ratio ([2]; Table 10): 65.4% | Vertigo plus Dizzy Feeling: Improvement ratio ([2]; Table 10, P group 46.4, chi0^2 = 8.3955, P < 0.005): 73.1% | Insomnia: Improvement ratio ([2]; Table 10, P group 47.4, P = 0.0247): 83.3% | Dizzy Feeling: Improvement ratio ([2]; Table 10, P group 50.0, chi0^2 = 7.4243, P < 0.01): 81.3% | Palsy in Limbs: Improvement ratio ([2]; Table 10, P group 53.8, P = 0.0318): 82.6% | Headache: Improvement ratio ([2]; Table 10, P group 62.5, chi0^2 = 3.1277, P < 0.10): 82.1% | relief of headache, vertigo, dizzy feeling, syncope, stiffness in the shoulders, stiffness in the nape, palsy in limbs, insomnia and pains on the waist and the back ([2]; human, in vivo): excellent effects were attained | Irritation: Improved [2, 3]: 2 | Irritation: Unchanged or Worsened [2, 3]: 1 | Depression: Improved [2, 4]: 3 | Depression: Unchanged or Worsened [2, 4]: 4 | Pain on Breast: Improved [2, 4]: 5 | Pain on Breast: Unchanged or Worsened [2, 4]: 2 | Short Breath: Improved [2, 4]: 3 | Short Breath: Unchanged or Worsened [2, 4]: 4 | Oppression on Breast: Improved [2, 5]: 5 | Oppression on Breast: Unchanged or Worsened [2, 5]: 3 | Syncope: Improved [2, 5]: 6 | Syncope: Unchanged or Worsened [2, 5]: 2 | Virtigo: Improved [2, 6]: 6 | Virtigo: Unchanged or Worsened [2, 6]: 3 | Warmness: Improved [2, 6]: 7 | Warmness: Unchanged or Worsened [2, 6]: 2 | Vertigo: Improved by 1 grade [2, 7]: 1 | Vertigo: Improved by 2 grades [2, 7]: 3 | Vertigo: Improved by 3 grades [2, 7]: 1 | Vertigo: Improved by 4 grades [2, 7]: 1 | Vertigo: Not Changed [2, 7]: 2 | Vertigo: Worsened by 1 grade [2, 7]: 1 | Vertigo: Worsened by 2 grades [2, 7]: 0 | Palpitation: Improved [2, 8]: 8 | Palpitation: Unchanged or Worsened [2, 8]: 3 | Rush of Blood: Improved [2, 9]: 9 | Rush of Blood: Unchanged or Worsened [2, 9]: 4 | Chill on Limbs: Improved [2, 10]: 5 | Chill on Limbs: Unchanged or Worsened [2, 10]: 9 | Languor: Improved [2, 11]: 9 | Languor: Unchanged or Worsened [2, 11]: 6 | Dizzy Feeling: Improved [2, 12]: 13 | Dizzy Feeling: Unchanged or Worsened [2, 12]: 3 | Tinnitus: Improved [2, 12]: 8 | Tinnitus: Unchanged or Worsened [2, 12]: 8 | Dizzy Feeling: Improved by 1 grade [2, 13]: 0 | Dizzy Feeling: Improved by 2 grades [2, 13]: 11 | Dizzy Feeling: Improved by 3 grades [2, 13]: 1 | Dizzy Feeling: Improved by 4 grades [2, 13]: 1 | Dizzy Feeling: Not Changed [2, 13]: 2 | Dizzy Feeling: Worsened by 1 grade [2, 13]: 1 | Dizzy Feeling: Worsened by 2 grades [2, 13]: 0 | Pains on Waist and Back: Improved [2, 14]: 11 | Pains on Waist and Back: Unchanged or Worsened [2, 14]: 6 | Forgetfulness: Improved [2, 15]: 7 | Forgetfulness: Unchanged or Worsened [2, 15]: 11 | Insomnia: Improved [2, 15]: 15 | Insomnia: Unchanged or Worsened [2, 15]: 3 | Insomnia: Improved by 1 grade [2, 16]: 7 | Insomnia: Improved by 2 grades [2, 16]: 7 | Insomnia: Improved by 3 grades [2, 16]: 0 | Insomnia: Improved by 4 grades [2, 16]: 1 | Insomnia: Not Changed [2, 16]: 2 | Insomnia: Worsened by 1 grade [2, 16]: 1 | Insomnia: Worsened by 2 grades [2, 16]: 0 | Palsy in Limbs: Improved [2, 17]: 19 | Palsy in Limbs: Unchanged or Worsened [2, 17]: 4 | Palsy in Limbs: Improved by 1 grade [2, 18]: 11 | Palsy in Limbs: Improved by 2 grades [2, 18]: 7 | Palsy in Limbs: Improved by 3 grades [2, 18]: 1 | Palsy in Limbs: Improved by 4 grades [2, 18]: 0 | Palsy in Limbs: Not Changed [2, 18]: 4 | Palsy in Limbs: Worsened by 1 grade [2, 18]: 0 | Palsy in Limbs: Worsened by 2 grades [2, 18]: 0 | Stiffness in Nape: Improved [2, 19]: 17 | Stiffness in Nape: Unchanged or Worsened [2, 19]: 8 | Stiffness in Nape: Improved by 1 grade [2, 20]: 11 | Stiffness in Nape: Improved by 2 grades [2, 20]: 5 | Stiffness in Nape: Improved by 3 grades [2, 20]: 1 | Stiffness in Nape: Improved by 4 grades [2, 20]: 0 | Stiffness in Nape: Not Changed [2, 20]: 5 | Stiffness in Nape: Worsened by 1 grade [2, 20]: 2 | Stiffness in Nape: Worsened by 2 grades [2, 20]: 1 | Vertigo plus Dizzy Feeling: Improved by 1 grade [2, 20]: 1 | Vertigo plus Dizzy Feeling: Improved by 2 grades [2, 20]: 14 | Vertigo plus Dizzy Feeling: Improved by 3 grades [2, 20]: 2 | Vertigo plus Dizzy Feeling: Improved by 4 grades [2, 20]: 2 | Vertigo plus Dizzy Feeling: Not Changed [2, 20]: 4 | Vertigo plus Dizzy Feeling: Worsened by 1 grade [2, 20]: 2 | Vertigo plus Dizzy Feeling: Worsened by 2 grades [2, 20]: 0 | Stiffness in Shoulders: Improved [2, 21]: 17 | Stiffness in Shoulders: Unchanged or Worsened [2, 21]: 9 | Stiffness in Shoulders: Improved by 1 grade [2, 22]: 10 | Stiffness in Shoulders: Improved by 2 grades [2, 22]: 5 | Stiffness in Shoulders: Improved by 3 grades [2, 22]: 0 | Stiffness in Shoulders: Improved by 4 grades [2, 22]: 2 | Stiffness in Shoulders: Not Changed [2, 22]: 8 | Stiffness in Shoulders: Worsened by 1 grade [2, 22]: 1 | Stiffness in Shoulders: Worsened by 2 grades [2, 22]: 0 | Heaviness in Head: Improved [2, 23]: 23 | Heaviness in Head: Unchanged or Worsened [2, 23]: 5 | Headache: Improved by 1 grade [2, 24]: 7 | Headache: Improved by 2 grades [2, 24]: 12 | Headache: Improved by 3 grades [2, 24]: 4 | Headache: Improved by 4 grades [2, 24]: 0 | Headache: Not Changed [2, 24]: 4 | Headache: Worsened by 1 grade [2, 24]: 1 | Headache: Worsened by 2 grades [2, 24]: 0 | Headache: Improved [2, 25]: 25 | Headache: Unchanged or Worsened [2, 25]: 5 | Stiffness in Shoulders and Nape: Improved by 1 grade [2, 26]: 13 | Stiffness in Shoulders and Nape: Improved by 2 grades [2, 26]: 21 | Stiffness in Shoulders and Nape: Improved by 3 grades [2, 26]: 1 | Stiffness in Shoulders and Nape: Improved by 4 grades [2, 26]: 2 | Stiffness in Shoulders and Nape: Not Changed [2, 26]: 3 | Stiffness in Shoulders and Nape: Worsened by 1 grade [2, 26]: 1 | Stiffness in Shoulders and Nape: Worsened by 2 grades [2, 26]: 0
